Laboratory results: patent US20170173039A1, “COMPOSITIONS AND METHODS TO TREAT ADDICTION” (YALE UNIVERSITY, priority 2014, published 2017)
Where two headings read alike, the source gives them in different places.

What was measured:
[1] = Effect of naltrexone on alcohol stimulation (BAES); format: in vivo, human; conditions: calculated from Ray et al. (Arch Gen Psychiatry 2007)
Description: No human studies have examined perampanel in psychiatric/substance-using populations. We calculated an effect size for naltrexone based on Ray et al. (Arch Gen Psychiatry. 2007; 64(9):1069-77), for the effect of naltrexone on stimulation (BAES) and will extrapolate this effect to perampanel. Based on this calculated effect size (d) of 0.45 (e.g. a moderate effect size), we should be able to show a significant difference between perampanel and placebo groups using a two-sided, […] t-test, with alpha=0.05 and power (1-Beta) of 0.80 with n=21 subjects in each experimental group (total N=42). We will recruit and enter N=50 subjects, in order to complete at least 42.

[2] = in vivo; cited from earlier work
[3] = in vivo; cited from earlier work; remark: listed apart in the source
AMPA receptor [4] = conditions: in vitro, rat hippocampal slices; cited from earlier work
CYP3A4 = CYP3A4 (Homo sapiens, UniProt P08684); conditions: cited from earlier work
CYP3A4, sequence (P08684 whole entry): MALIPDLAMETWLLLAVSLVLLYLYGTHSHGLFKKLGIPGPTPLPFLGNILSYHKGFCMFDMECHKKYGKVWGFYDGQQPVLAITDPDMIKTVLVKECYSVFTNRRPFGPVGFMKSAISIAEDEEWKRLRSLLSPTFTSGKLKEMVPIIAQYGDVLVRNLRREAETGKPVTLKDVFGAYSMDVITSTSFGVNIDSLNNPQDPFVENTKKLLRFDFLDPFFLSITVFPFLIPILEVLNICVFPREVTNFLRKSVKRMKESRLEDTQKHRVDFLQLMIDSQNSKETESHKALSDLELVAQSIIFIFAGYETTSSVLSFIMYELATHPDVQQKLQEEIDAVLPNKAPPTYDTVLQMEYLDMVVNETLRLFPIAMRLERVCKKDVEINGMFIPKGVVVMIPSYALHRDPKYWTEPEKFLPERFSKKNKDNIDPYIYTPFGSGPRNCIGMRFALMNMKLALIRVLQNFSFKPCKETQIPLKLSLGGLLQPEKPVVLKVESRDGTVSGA

[5] = cited from earlier work
[6] = cited from earlier work; remark: listed apart in the source
[7] = cited from earlier work; remark: listed apart in the source
AMPA receptor [8] = conditions: animal spinal neurons; cited from earlier work

SMILES | effect size (d) on stimulation (BAES) [1] | bioavailability [2] | pharmacokinetic linearity [2] | blood-brain-barrier penetration [3] | selectivity of action on the AMPA receptor (AMPA receptor [4]) | metabolising enzyme (CYP3A4) | medication related adverse events/side effects ([5]; chronic dosing in epilepsy trials) | tolerability ([5]; human subjects, doses of 8 mg or 12 mg daily) | elimination half-life T1/2 ([6]; healthy volunteers) | absorption in the gastrointestinal system ([6]; orally active) | time to peak plasma concentration (Tmax) ([6]; post-ingestion) | maximum tolerated single oral dose ([7]; healthy human subjects, single oral dose) | medication related adverse events/side effects ([7]; human, in vivo) | selectivity of action on the AMPA receptor (AMPA receptor [8])
O=C1CC[C@@]2(O)[C@H]3Cc4ccc(O)c5c4[C@@]2(CCN3CC2CC2)[C@H]1O5 [naltrexone] | 0.45 | – | – | – | – | – | – | – | – | – | – | – | – | –
N#Cc1ccccc1-c1cc(-c2ccccn2)cn(-c2ccccc2)c1=O [perampanel] | – | about 100% | linear pharmacokinetics | effectively penetrates the blood-brain-barrier | selective action | primarily metabolized by CYP3A4 | dizziness, somnolence, irritability, headache, fall, and ataxia | well tolerated | – | – | – | – | – | –
CC(=O)N1N=C(c2ccc(N)cc2)c2cc3c(cc2C[C@H]1C)OCO3 [talampanel] | – | – | – | good blood-brain-barrier penetration | – | – | – | – | approximately 4 hours | easily absorbed | approximately 2 hours | 100 mg | dizziness, sedation, and ataxia | selective action
